From paper PMC9852121, “Targeted α-therapy using astatine (^211At)-labeled PSMA1, 5, and 6: a preclinical evaluation as a novel compound” (European Journal of Nuclear Medicine and Molecular Imaging, 2022)
Like-named read-outs stand apart in the source and are kept apart here.

How the values were obtained:
[1] = parameters: method as in PMID 27230930; conditions: cited from earlier work
[2] = Urine analysis with urinalysis test strips (protein) in normal ICR mice; type: in vivo; conditions: for Urine test of protein: individual animals No. 1-3
[3] = Histopathological evaluation of organs in LNCaP xenograft mice; type: in vivo; conditions: LNCaP xenograft NOD/SCID mice, 3 and 6 weeks after 0.4 MBq
Procedure: (§1) The excised organs and tissues were fixed in a 10% neutral buffered formalin solution. After fixation, paraffin sections were prepared and stained with hematoxylin and eosin. Specimens were evaluated using an integrated microscope (BZ-X810; Keyence Corporation, Osaka, Japan). Histological evaluation was performed by a toxicopathology specialist with the support of KAC Co. Ltd. (Kyoto, Japan).

[4] = In vivo deastatination / metabolites in blood and urine; parameters: species or system mice
[5] = Plasma BUN and creatinine (renal function) in ICR mice; type: in vivo; conditions: 8 weeks after administration, Supplementary Fig. S2
Procedure: Plasma was obtained by centrifuging a portion of the blood sample collected at the time of euthanasia and was measured using a dry clinical chemistry analyzer (SPOTCHEM D-00 QR D-02; ARKRAY, Inc., Kyoto, Japan). Blood urea nitrogen (BUN) and creatinine (Cre) levels were also measured. Cre values less than 0.2 were considered 0.2 in the statistical analysis.

LNCaP xenograft [6] = experiment: Biodistribution in LNCaP xenograft model (NOD/SCID mice); type: in vivo; conditions: for Total excretion in the urine / Total excretion in the feces: Fig. 3 legend, mouse strain not given; for Tumor retention (uptake): about 0.11-0.12 MBq; for Kidney uptake, comparison [211At]PSMA5 versus [211At]PSMA6: 3 h post-injection, NOD/SCID mice
Description: (§2) Non-obese diabetic/severe combined immunodeficiency (NOD/SCID) mice (5 weeks old, male) were purchased from Charles River Japan, Inc. (Atsugi, Japan). LNCaP cells were suspended in a 1:1 mixture of medium and Matrigel (Corning, USA), subcutaneously implanted into the unilateral flank of the mice (approximately 6–10 × 10^6 cells), and used approximately 5 weeks later (range, 4–8 weeks). Institute of Cancer Research (ICR) mice (6 weeks old, male) were purchased from Japan SLC, Inc. (Shizuoka, Japan) and used as a non-tumor-bearing cohort for the evaluation of biodistribution and histology.
(§3) High PSMA expression was already confirmed in LNCaP xenografts in our previous study. The brain, thyroid, salivary gland, lung, heart, liver, spleen, pancreas, stomach, small intestine, colon, kidney, bone, testis, blood, urine, feces, and tumor were excised and weighed to evaluate biodistribution after euthanasia at 3 and 24 h after administration. Urine excretion was determined from absorption to filter paper or by urine collection in the cage, and feces were collected from the cage. Radioactivity was measured using a 2480 Wizard^2 γ counter. The detection efficiency for ^211At with the γ counter was calibrated by measurement of the ^211At source whose radioactivity was determined with a Ge semiconductor detector (BE2020, Mirion Technologies (Canberra), Connecticut, USA). Uptake was calculated as the percentage of injected dose (%ID).

LNCaP xenograft [7] = experiment: Treatment effect in LNCaP xenograft mice (tumor size, body weight); type: in vivo, NOD/SCID mice; conditions: single administration 0.4 MBq, versus saline
Description: as §2
LNCaP xenograft mice (body weight = 21.8 ± 5.98 g) were administered [^211At]PSMA5 (0.39 ± 0.03 MBq, 0.002 μg, n = 12), [^211At]PSMA1 (0.40 ± 0.07 MBq, 0.002 μg, n = 5), or saline (n = 10). […] Non-radiolabeled PSMA5 (high mass, 0.02 μg; low mass, 0.002 μg) and PSMA1 (high mass, 0.02 μg; low mass, 0.002 μg) were also administered to LNCaP xenograft mice (each n = 3) and compared with saline-injected mice (n = 3) to assess the absence of antitumor effect by the PSMA compound itself. […] The body weight (g) was also monitored.

LNCaP xenograft [8] = experiment: Planar imaging with γ camera in LNCaP xenograft mice; type: in vivo, NOD/SCID mice; conditions: 3 and 24 h post-injection
Procedure: Planar imaging was performed using a γ camera system (E-cam, Siemens) at 3 and 24 h after administration, targeting the X-rays emitted from the daughter nuclide ^211Po (energy window: 79 keV ± 20%). Image analysis was performed by setting the regions of interest in the tumor and kidneys using AMIDE software (version 1.0.4).

[9] = Histopathological evaluation of organs in normal ICR mice; type: in vivo; conditions: for Histopathology of kidney parenchyma, salivary gland, stomach, thyroid, spleen and small intestine: 8 weeks after 0.4 MBq
Procedure: as §1

[10] = test system: LNCaP cells (high expression of PSMA); experiment: In vitro cellular uptake analysis (LNCaP versus PC-3 cells); type: cell-based, human; conditions: 30 min incubation, Fig. 2; for Cellular uptake, LNCaP cells compared with PC-3 cells: LNCaP high, PC-3 low PSMA expression
Description: Human prostate cancer cell lines, prostatic carcinoma-3 (PC-3) (low expression of PSMA), and lymph node carcinoma of the prostate (LNCaP) (high expression of PSMA) were obtained from the RIKEN Cell Bank (Tsukuba, Japan). Cells were maintained in a culture medium, Roswell Park Memorial Institute 1640 medium (FUJIFILM Wako Pure Chemical Corporation, Osaka, Japan), supplemented with 10% heat-inactivated fetal bovine serum (Gibco) and 1% penicillin-streptomycin (FUJIFILM Wako Pure Chemical). The medium for LNCaP was supplemented with 1% sodium pyruvate (FUJIFILM Wako Pure Chemical) in a culture medium. Cells were seeded in 24-well plates (5 × 10^4/well) and cultured for 2 days. After washing twice with phosphate-buffered saline (PBS) (−), the culture medium was changed to Hanks’ balanced salt solution (+). After treatment with [^211At]PSMA1 or [^211At]PSMA5 (approximately 30–50 kBq/well), cells were washed twice with PBS (–). After washing, all cells were lysed with 0.1 N sodium hydroxide, and the radioactivity of the cells was calculated using a 2480 Wizard^2 γ counter (Perkin Elmer, MA, USA). Protein levels were measured using a plate reader (MultiScan FC, Thermo Fisher) and the BCA Protein Assay Kit (FUJIFILM Wako Pure Chemical). Uptake (%uptake/mg protein) was compared between PC-3 and LNCaP cells at 30 min after incubation with [^211At]PSMA1 or [^211At]PSMA5.

[11] = Biodistribution in normal ICR mice; type: in vivo; conditions: 3 h post-injection
Description: as §2
as §3, with “The brain, thyroid, salivary gland, lung, heart, liver, spleen, pancreas, stomach, small intestine, colon, kidney, bone, testis, blood, urine, feces, and tumor were excised and weighed to evaluate biodistribution after euthanasia at 3 and 24 h after administration.” left out

[12] = parameters: method as in PMID 27789722, PMID 27889802; conditions: humans; cited from earlier work
[13] = parameters: method as in PMID 27789722, PMID 27889802; conditions: mice; cited from earlier work

SMILES | Urine test of protein ([2]; Day 21 after 0.4 MBq) | Urine test of protein ([2]; Day 38 after 0.4 MBq) | Total excretion in the urine (LNCaP xenograft [6]; 3 h) [%ID] | Tumor retention (uptake) (LNCaP xenograft [6]; 3 h after administration) [%ID/g] | Kidney uptake, comparison [211At]PSMA5 versus [211At]PSMA6 (LNCaP xenograft [6]) | Total excretion in the feces (LNCaP xenograft [6]; 24 h) [%ID] | Total excretion in the urine (LNCaP xenograft [6]; 24 h) [%ID] | Tumor retention (uptake) (LNCaP xenograft [6]; 24 h after administration) [%ID/g] | Changes in body weight (LNCaP xenograft [7]) | Treatment effect on tumor growth (tumor size) (LNCaP xenograft [7]) | Histopathology of kidney parenchyma, salivary gland, stomach, thyroid, spleen and small intestine [9] | Cellular uptake, LNCaP cells compared with PC-3 cells [10] | Kidney uptake, comparison [211At]PSMA5 versus [211At]PSMA6 [11] | other results
O=C(O)CC[C@H](NC(=O)NC(CCCCNC(=O)c1ccc([211At])cc1)C(=O)O)C(=O)O (stereo partly drawn) [^211At-6, (2S)-2-(3-(1-carboxy-5-(4-211At-astatobenzamido)pentyl)ureido)-pentanedioic acid] | – | – | – | – | – | – | – | – | – | – | – | – | – | Kidney findings after treatment ([1]; 1.5 MBq): subcortical atrophy, and degenerative loss of proximal tubules; Proteinuria ([1]; animals treated with 1.5 MBq): developed proteinuria 1–2 months after treatment; Proteinuria ([1]; animals treated with 37 kBq): developed mild proteinuria that was later resolved
O=C(O)CCC(NC(=O)NC(CCCCNC(=O)C(Cc1ccc2ccccc2c1)NC(=O)c1ccc(CNC(=O)C(CCC(=O)O)NC(=O)C(CCC(=O)O)NC(=O)Cc2ccc([211At])cc2)cc1)C(=O)O)C(=O)O (centres unmarked) [[^211At]PSMA5] | 30 (1+) mg/dl | 30 (1+) mg/dl | 8.26 ± 5.00 | 30.6 ± 17.8 | similar | 35.2 ± 9.2 | 15.33 ± 6.3 | 40.7 ± 2.6 | No significant changes in body weight | excellent tumor growth suppression | no significant changes | more highly incorporated into LNCaP cells | similar | Proteinuria ([2]; 8 weeks after administration): did not observe proteinuria; Urine test of protein ([2]; Day 10 after 0.4 MBq): 30 (1+) mg/dl; Urine test of protein ([2]; Day 14 after 0.4 MBq): 30 (1+) mg/dl; Histopathology of salivary glands and stomach [3]: No significant changes; Histopathology of the kidneys [3]: regenerated tubules were observed in the cortical area in all NOD/SCID mice; Metabolites, including astatide ions, present in urine (deastatination) ([4]; 3 h after injection, mice): not more than 1.0 % of the injected doses; Radioactivity in the blood and urine from intact molecules ([4]; 3 h post injection): most of the radioactivity observed in the blood and urine was from intact molecules; BUN and Cre levels [5]: did not observe proteinuria or increased BUN and Cre levels; Tumor uptake, comparison with [211At]PSMA6 (LNCaP xenograft [6]; mouse, in vivo): higher tumor uptake than [^211At]PSMA6; Tumor-to-kidney uptake, comparison with [211At]PSMA6 (LNCaP xenograft [6]; mouse, in vivo): better tumor-to-kidney uptake; Uptake in the tumor xenografts and kidneys on planar images (LNCaP xenograft [8]): High uptake; Mice with regenerated tubules in the cortical area of the kidney ([9]; 2 weeks after high dose 1 MBq): one out of four; Cellular uptake, comparison between compounds [10]: higher uptake than [^211At]PSMA1
O=C(O)CC[C@H](NC(=O)N[C@@H](CCCCNC(=O)[C@H](Cc1ccc2ccccc2c1)NC(=O)c1ccc(CNC(=O)[C@H](CCC(=O)O)NC(=O)[C@H](CCC(=O)O)NC(=O)c2ccc([18F])nc2)cc1)C(=O)O)C(=O)O [[^18F]PSMA-1007] | – | – | – | – | – | – | – | – | – | – | – | – | – | Urine excretion in PET [12]: minimal; Urine excretion in PET [13]: high urine excretion
O=C(O)CCC(NC(=O)NC(CCCCNC(=O)C(Cc1ccc2ccccc2c1)NC(=O)c1ccc(CNC(=O)CCC(=O)NCCCCC(NC(=O)CNC(=O)Cc2ccc([211At])cc2)C(=O)O)cc1)C(=O)O)C(=O)O (centres unmarked) [[^211At]PSMA1] | – | – | 0.49 ± 0.37 | 12.4 ± 4.8 | – | 14.0 ± 4.8 | 14.7 ± 10.0 | 8.7 ± 3.5 | No significant changes in body weight | good treatment effect | – | more highly incorporated into LNCaP cells | – | Kidney excretion, comparison with [211At]PSMA5 and [211At]PSMA6 (LNCaP xenograft [6]; mouse, in vivo): superior
O=C(O)CC[C@H](NC(=O)N[C@@H](CCCCNC(=O)[C@@H](Cc1ccc2ccccc2c1)NC(=O)c1ccc(CNC(=O)[C@H](CCC(=O)O)NC(=O)[C@H](CCC(=O)O)NC(=O)Cc2ccc([211At])cc2)cc1)C(=O)O)C(=O)O [[^211At]PSMA6] | 30 (1+) mg/dl | 30 (1+) mg/dl | – | 19.1 ± 4.5 | similar | 9.78 ± 0.79 | 6.20 ± 1.51 | 18.1 ± 2.2 | – | – | no significant changes | – | similar | Urine test of protein ([2]; Day 24 after 0.4 MBq): 100 (2+) mg/dl; Urine test of protein ([2]; Day 31 after 0.4 MBq): 30 (1+) mg/dl; Urine test of protein ([2]; Day 45 after 0.4 MBq): 30 (1+) mg/dl; Retention in the kidney, comparison with [211At]PSMA5 (LNCaP xenograft [6]; 24 h post-injection): higher retention in the kidney
